# In ChEMBL document CHEMBL1201862, “PubChem BioAssay data set” (2004):
# The source made the active and inactive calls.
# Tests used:
# [1] = biological target: T1, Tyrosyl-DNA phosphodiesterase 2 (Homo sapiens, UniProt O95551); assay: human TDP2 enzyme inhibitors, dose response, biochemical, epi absorbance, IC50 (AID 743297)
# T1 sequence (O95551 whole entry): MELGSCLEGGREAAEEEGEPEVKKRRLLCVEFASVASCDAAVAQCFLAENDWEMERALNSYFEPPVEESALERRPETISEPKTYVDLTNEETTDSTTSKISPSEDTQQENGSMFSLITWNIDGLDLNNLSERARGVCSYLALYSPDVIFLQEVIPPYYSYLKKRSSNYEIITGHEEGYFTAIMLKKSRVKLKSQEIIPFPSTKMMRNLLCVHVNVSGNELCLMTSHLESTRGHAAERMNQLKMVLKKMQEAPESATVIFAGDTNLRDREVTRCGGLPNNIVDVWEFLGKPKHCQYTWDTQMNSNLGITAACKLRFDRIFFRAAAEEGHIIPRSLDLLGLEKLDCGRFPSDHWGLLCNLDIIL
# [2] = biological target: T2, Histone-lysine N-methyltransferase NSD2 (Homo sapiens, UniProt O96028); format: biochemical
# T2 sequence (O96028 whole entry): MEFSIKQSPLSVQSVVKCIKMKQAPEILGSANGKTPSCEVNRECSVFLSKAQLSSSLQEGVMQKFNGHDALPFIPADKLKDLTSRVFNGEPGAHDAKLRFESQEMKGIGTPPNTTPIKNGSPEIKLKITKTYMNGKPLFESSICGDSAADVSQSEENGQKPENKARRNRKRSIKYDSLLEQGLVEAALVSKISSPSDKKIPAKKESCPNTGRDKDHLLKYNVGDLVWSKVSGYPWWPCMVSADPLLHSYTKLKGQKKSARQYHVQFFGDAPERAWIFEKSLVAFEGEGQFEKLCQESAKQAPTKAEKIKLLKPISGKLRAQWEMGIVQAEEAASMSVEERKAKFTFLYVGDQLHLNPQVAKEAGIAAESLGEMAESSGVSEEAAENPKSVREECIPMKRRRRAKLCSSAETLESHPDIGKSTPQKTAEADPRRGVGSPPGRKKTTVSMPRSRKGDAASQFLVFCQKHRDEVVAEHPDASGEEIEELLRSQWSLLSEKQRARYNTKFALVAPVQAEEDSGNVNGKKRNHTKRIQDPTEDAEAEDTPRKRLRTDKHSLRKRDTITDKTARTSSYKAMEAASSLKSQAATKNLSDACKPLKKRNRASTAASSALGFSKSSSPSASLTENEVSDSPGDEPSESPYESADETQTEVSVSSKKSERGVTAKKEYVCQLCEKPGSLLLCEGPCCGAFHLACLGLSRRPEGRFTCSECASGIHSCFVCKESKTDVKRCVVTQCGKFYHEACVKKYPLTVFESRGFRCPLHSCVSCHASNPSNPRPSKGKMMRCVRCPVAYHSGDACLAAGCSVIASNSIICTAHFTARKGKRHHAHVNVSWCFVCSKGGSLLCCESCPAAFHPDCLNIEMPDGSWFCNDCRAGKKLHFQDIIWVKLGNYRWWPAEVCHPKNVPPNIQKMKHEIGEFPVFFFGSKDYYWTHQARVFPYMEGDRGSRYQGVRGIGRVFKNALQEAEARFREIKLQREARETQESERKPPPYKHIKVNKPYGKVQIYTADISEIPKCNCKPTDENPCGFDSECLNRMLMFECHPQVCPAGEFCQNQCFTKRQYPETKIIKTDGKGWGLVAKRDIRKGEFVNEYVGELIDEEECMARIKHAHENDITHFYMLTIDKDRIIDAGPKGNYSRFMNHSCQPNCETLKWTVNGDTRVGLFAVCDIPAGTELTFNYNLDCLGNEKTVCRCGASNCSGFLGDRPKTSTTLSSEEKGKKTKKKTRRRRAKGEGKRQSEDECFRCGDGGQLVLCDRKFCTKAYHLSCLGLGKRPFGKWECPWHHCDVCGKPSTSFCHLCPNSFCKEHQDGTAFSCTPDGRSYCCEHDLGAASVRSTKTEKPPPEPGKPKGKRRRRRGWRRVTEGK
# [3] = biological target: T3, Apoptotic protease-activating factor 1 (Homo sapiens, UniProt O14727); format: functional
# T3 sequence (O14727 whole entry): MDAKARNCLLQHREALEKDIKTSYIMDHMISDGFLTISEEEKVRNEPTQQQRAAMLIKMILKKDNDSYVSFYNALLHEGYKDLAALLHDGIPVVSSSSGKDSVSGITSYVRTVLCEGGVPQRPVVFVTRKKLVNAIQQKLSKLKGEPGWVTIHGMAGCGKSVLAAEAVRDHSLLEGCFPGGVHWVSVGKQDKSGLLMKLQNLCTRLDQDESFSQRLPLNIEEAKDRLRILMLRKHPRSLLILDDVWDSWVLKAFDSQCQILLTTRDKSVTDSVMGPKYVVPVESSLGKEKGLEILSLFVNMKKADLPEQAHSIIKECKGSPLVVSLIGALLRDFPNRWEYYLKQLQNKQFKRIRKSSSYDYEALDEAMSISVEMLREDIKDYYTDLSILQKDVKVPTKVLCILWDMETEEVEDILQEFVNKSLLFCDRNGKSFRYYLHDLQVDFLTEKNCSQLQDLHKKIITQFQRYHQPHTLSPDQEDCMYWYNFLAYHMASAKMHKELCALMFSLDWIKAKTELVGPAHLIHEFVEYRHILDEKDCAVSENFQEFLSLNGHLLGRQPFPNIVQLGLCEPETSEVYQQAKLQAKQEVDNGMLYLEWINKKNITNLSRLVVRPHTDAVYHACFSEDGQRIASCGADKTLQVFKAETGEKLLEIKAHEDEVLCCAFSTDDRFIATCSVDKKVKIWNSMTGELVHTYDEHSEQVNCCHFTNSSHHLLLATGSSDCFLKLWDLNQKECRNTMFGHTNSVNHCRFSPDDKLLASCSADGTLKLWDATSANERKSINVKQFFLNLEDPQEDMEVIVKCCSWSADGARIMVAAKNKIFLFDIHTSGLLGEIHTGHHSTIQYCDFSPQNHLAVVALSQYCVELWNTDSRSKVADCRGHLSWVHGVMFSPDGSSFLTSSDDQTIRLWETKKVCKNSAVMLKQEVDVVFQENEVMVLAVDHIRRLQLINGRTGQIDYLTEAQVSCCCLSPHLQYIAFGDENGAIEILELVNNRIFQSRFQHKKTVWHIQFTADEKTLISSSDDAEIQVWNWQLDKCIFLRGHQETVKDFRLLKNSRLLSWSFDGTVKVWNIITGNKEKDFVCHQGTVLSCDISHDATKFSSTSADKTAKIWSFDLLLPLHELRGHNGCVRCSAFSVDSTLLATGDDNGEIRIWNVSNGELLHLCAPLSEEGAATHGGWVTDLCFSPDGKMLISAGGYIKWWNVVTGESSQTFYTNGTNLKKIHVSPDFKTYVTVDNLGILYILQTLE
# [4] = biological target: Serine/threonine-protein kinase TBK1 (Homo sapiens, UniProt Q9UHD2); assay: Navigating the Kinome. Panel member name: TBK1; format: functional
# Chain of Serine/threonine-protein kinase TBK1 (Q9UHD2 whole entry): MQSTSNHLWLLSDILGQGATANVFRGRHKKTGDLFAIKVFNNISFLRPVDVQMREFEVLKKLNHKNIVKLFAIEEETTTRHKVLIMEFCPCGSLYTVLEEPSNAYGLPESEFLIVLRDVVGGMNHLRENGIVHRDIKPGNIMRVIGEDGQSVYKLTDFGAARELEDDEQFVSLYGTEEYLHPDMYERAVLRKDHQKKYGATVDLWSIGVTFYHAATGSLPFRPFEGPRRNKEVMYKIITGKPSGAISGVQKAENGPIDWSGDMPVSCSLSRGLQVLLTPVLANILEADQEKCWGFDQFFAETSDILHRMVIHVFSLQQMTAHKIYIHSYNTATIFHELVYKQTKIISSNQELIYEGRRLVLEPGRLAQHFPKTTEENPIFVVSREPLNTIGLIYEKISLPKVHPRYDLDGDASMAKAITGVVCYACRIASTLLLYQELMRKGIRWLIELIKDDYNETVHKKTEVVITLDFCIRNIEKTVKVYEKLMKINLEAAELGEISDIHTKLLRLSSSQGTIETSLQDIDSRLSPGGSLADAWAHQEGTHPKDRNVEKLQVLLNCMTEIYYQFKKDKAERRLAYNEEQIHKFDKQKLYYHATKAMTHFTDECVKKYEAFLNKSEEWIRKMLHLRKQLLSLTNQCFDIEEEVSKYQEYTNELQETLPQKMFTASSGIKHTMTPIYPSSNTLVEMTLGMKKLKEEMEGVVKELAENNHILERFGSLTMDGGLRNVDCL
Compound,IC50 [1],AC50 [2],IC50 [3],Ki [4]
CC(=O)N(C1=C(Cl)C(=O)c2ccccc2C1=O)c1ccc(C(=O)O)cc1,9.4 µM (active),3.29 µM (active),2.92 µM (active),–
CC1(C)C=C2C(=NN(c3ccccc3)C(N)=C2C#N)CO1,1.27 µM (active),5.67 µM (active),1.38 µM (active),–
Cc1ccc(-c2cc3nc(Br)cnc3[nH]2)cc1,–,–,–,> 3.16 µM (inactive)
